Assay results: patent publication US9663525B2, “Pyrazolopyrimidinyl inhibitors of ubiquitin-activating enzyme” (Millennium Pharmaceuticals, Inc., priority 2012, dated 2017)

Test system: leukemia and myeloma cell lines
Experiment: not given
Conditions: cited from earlier work
For `O=C1NN(c2ccc(F)c(Cl)c2)C(=O)/C1=C\c1ccc([N+](=O)[O-])o1` [PYZD-4409], the cell death is given as “induced cell death”.

Test system: mouse acute myeloid leukemia (AML model)
Experiment: not given
Conditions: cited from earlier work
For `O=C1NN(c2ccc(F)c(Cl)c2)C(=O)/C1=C\c1ccc([N+](=O)[O-])o1` [PYZD-4409], the anti-tumor activity is given as “demonstrated anti-tumor activity”.

Molecular target: recombinant human UAE (Homo sapiens (Human), UniProt P22314)
Sequence (P22314 whole entry): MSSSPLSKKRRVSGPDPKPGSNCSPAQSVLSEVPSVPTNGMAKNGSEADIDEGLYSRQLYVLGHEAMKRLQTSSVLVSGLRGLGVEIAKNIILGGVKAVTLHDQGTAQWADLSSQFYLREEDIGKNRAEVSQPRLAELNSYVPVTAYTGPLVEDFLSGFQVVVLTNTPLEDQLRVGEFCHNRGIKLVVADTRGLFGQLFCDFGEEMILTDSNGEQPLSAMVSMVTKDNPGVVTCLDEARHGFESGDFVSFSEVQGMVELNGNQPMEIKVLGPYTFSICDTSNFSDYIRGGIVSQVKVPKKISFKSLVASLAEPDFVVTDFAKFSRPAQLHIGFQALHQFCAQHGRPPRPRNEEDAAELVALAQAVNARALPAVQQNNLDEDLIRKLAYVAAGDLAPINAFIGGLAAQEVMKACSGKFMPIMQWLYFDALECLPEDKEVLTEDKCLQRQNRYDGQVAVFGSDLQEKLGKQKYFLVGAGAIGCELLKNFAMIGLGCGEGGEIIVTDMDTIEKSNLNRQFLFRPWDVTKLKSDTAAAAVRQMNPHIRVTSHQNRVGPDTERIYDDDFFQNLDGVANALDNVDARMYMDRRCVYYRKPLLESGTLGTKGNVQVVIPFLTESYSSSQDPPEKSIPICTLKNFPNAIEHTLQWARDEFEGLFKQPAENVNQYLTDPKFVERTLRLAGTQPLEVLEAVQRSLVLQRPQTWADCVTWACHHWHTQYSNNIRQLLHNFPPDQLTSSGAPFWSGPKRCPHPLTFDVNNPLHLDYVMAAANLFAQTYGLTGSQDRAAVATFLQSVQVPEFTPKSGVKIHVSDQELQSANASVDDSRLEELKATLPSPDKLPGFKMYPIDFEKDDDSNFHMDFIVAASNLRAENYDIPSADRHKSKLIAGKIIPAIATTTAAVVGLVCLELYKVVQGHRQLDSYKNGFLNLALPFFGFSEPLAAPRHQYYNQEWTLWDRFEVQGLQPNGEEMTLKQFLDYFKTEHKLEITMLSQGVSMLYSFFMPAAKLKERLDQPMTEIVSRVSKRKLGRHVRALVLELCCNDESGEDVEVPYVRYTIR
Experiment: Ubiquitin Activating Enzyme (UAE) HTRF assay, human UAE
Conditions: not given
With `NS(=O)(=O)OC[C@H]1C[C@@H](Nc2ccnc3cc(-c4cccc(-c5ccccn5)c4)nn23)[C@H](O)[C@@H]1O` (racemic) [Compound I-036, (rac)-((1R,2R,3S,4R)-2,3-Dihydroxy-4-((2-(3-(pyridin-2-yl)phenyl)pyrazolo[1,5-a]pyrimidin-7-yl)amino)cyclopentyl)methyl rel-sulfamate] the IC50 was < 0.01 µM. With `NS(=O)(=O)OC[C@H]1C[C@@H](Nc2ccnc3cc(-c4csc5ccccc45)nn23)[C@H](O)[C@@H]1O` (racemic) [Compound I-022, (rac)-((1R,2R,3S,4R)-4-(2-(benzo[b]thiophen-3-yl)pyrazolo[1,5-a]pyrimidin-7-ylamino)-2,3-dihydroxycyclopentyl)methyl rel-sulfamate] the IC50 was < 0.01 µM. In the case of `NS(=O)(=O)OC[C@H]1C[C@@H](Nc2ccnc3cc(-c4cccc5c4oc4ccccc45)nn23)[C@H](O)[C@@H]1O` (racemic) [Compound I-010, (rac)-((1R,2R,3S,4R)-4-(2-(dibenzo[b,d]furan-4-yl)pyrazolo[1,5-a]pyrimidin-7-ylamino)-2,3-dihydroxycyclopentyl)methyl rel-sulfamate], the IC50 is reported as < 0.01 µM. For `NS(=O)(=O)OC[C@H]1C[C@@H](Nc2ccnc3cc(-c4csc5ccc(F)cc45)nn23)[C@H](O)[C@@H]1O` (racemic) [Compound I-081, (rac)-((1R,2R,3S,4R)-4-(2-(5-fluorobenzo[b]thiophen-3-yl)pyrazolo[1,5-a]pyrimidin-7-ylamino)-2,3-dihydroxycyclopentyl)methyl rel-sulfamate], the IC50 was < 0.01 µM. With `NS(=O)(=O)OC[C@H]1C[C@@H](Nc2ccnc3cc(-c4cccc5ccsc45)nn23)[C@H](O)[C@@H]1O` (racemic) [Compound I-045, (rac)-((1R,2R,3S,4R)-4-((2-(Benzo[b]thiophen-7-yl)pyrazolo[1,5-a]pyrimidin-7-yl)amino)-2,3-dihydroxycyclopentyl)methyl rel-sulfamate] the IC50 was < 0.01 µM. For `NS(=O)(=O)OC[C@H]1C[C@@H](Nc2ccnc3cc(-c4cccc5cccnc45)nn23)[C@H](O)[C@@H]1O` (racemic) [Compound I-017, (rac)-((1R,2R,3S,4R)-2,3-Dihydroxy-4-((2-(quinolin-8-yl)pyrazolo[1,5-a]pyrimidin-7-yl)amino)cyclopentyl)methyl rel-sulfamate], the IC50 was < 0.01 µM. With `NS(=O)(=O)OC[C@H]1C[C@@H](Nc2ccnc3cc(-c4coc5ccccc45)nn23)[C@H](O)[C@@H]1O` (racemic) [Compound I-049, (rac)-((1R,2R,3S,4R)-4-(2-(benzofuran-3-yl)pyrazolo[1,5-a]pyrimidin-7-ylamino)-2,3-dihydroxycyclopentyl)methyl rel-sulfamate] the IC50 was < 0.01 µM. In the case of `COc1ccccc1-c1cc2nccc(N[C@@H]3C[C@H](COS(N)(=O)=O)[C@@H](O)[C@H]3O)n2n1` (racemic) [Compound I-072, (rac)-((1R,2R,3S,4R)-2,3-dihydroxy-4-(2-(2-methoyphenyl)pyrazolo[1,5-a]pyrimidin-7-ylamino)cyclopentyl)methyl rel-sulfamate], the IC50 is reported as < 0.01 µM. With `NS(=O)(=O)OC[C@H]1C[C@@H](Nc2ccnc3cc(-c4cccc(OC(F)F)c4)nn23)[C@H](O)[C@@H]1O` (racemic) [Compound I-050, (rac)-((1R,2R,3S,4R)-4-((2-(3-(Difluoromethoxy)phenyl)pyrazolo[1,5-a-]pyrimidin-7-yl)amino)-2,3-dihydroxycyclopentyl)methyl rel-sulfamate] the IC50 was < 0.01 µM.

Same assay, conditions: human UAE
With `NS(=O)(=O)OC[C@H]1C[C@@H](Nc2ccnc3cc(-c4ccc(OC(F)F)c5ccccc45)nn23)[C@H](O)[C@@H]1O` [Compound I-112, (s.e.)-((1R,2R,3S,4R)-4-(2-(4-(difluoromethoxy)naphthalen-1-yl)pyrazolo[1,5-a]pyrimidin-7-ylamino)-2,3-dihydroxycyclopentyl)methyl sulfamate] the IC50 was < 0.01 µM. In the case of `COc1ccc2ccccc2c1-c1cc2nccc(N[C@@H]3C[C@H](COS(N)(=O)=O)[C@@H](O)[C@H]3O)n2n1` [Compound I-104, (s.e.)-((1R,2R,3S,4R)-2,3-dihydroxy-4-(2-(2-methoxynaphthalen-1-yl)pyrazolo[1,5-a]pyrimidin-7-ylamino)cyclopentyl)methyl sulfamate], the IC50 is reported as < 0.01 µM. For `NS(=O)(=O)OC[C@H]1C[C@@H](Nc2ccnc3cc(-c4c(OC(F)F)ccc5ccccc45)nn23)[C@H](O)[C@@H]1O` [Compound I-110, (s.e.)-((1R,2R,3S,4R)-4-(2-(2-(difluoromethoxy)naphthalen-1-yl)pyrazolo[1,5-a]pyrimidin-7-ylamino)-2,3-dihydroxycyclopentyl)methyl sulfamate], the IC50 was < 0.01 µM. For `NS(=O)(=O)OC[C@H]1C[C@@H](Nc2ccnc3cc(-c4cccc5ccccc45)nn23)[C@H](O)[C@@H]1O` [Compound I-098, (s.e.)-((1R,2R,3S,4R)-2,3-dihydroxy-4-{[2-(1-naphthyl)pyrazolo[1,5-a]pyrimidin-7-yl]amino}cyclopentyl)methyl sulfamate], the IC50 was < 0.01 µM.

Molecular target: mouse UAE (Mus musculus (Mouse), UniProt Q02053)
Sequence (Q02053 whole entry): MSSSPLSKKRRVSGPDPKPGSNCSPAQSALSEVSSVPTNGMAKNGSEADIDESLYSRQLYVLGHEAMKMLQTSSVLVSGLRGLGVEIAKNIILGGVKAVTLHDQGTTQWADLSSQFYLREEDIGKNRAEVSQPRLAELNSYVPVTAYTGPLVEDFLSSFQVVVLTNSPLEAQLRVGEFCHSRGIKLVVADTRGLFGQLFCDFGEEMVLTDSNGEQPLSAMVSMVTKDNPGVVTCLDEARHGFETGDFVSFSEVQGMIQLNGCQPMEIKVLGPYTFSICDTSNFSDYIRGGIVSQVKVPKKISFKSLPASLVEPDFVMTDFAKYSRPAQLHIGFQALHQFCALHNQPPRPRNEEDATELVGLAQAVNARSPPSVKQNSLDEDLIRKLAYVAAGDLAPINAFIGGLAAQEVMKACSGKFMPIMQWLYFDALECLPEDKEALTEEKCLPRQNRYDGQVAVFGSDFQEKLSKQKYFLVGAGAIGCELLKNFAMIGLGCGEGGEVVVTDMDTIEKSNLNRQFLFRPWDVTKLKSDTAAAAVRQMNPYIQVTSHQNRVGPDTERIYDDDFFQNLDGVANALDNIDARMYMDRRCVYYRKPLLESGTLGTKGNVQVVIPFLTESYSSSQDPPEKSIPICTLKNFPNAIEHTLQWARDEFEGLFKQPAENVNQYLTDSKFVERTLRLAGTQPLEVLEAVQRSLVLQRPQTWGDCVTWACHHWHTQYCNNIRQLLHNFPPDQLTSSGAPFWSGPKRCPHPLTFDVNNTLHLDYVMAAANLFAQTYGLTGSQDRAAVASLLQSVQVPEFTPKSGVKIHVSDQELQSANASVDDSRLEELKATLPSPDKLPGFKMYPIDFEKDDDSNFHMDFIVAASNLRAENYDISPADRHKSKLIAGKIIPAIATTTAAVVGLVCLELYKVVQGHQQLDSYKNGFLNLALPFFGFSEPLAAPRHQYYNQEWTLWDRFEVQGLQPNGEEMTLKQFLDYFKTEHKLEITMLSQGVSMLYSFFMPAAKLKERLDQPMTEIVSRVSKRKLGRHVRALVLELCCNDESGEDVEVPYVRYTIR
Experiment: Ubiquitin Activating Enzyme (UAE) HTRF assay, mouse UAE
Conditions: not given
For `NS(=O)(=O)OC[C@H]1C[C@@H](Nc2ccnc3cc(-c4csc5cc(Cl)ccc45)nn23)[C@H](O)[C@@H]1O` (racemic) [Compound I-091, (rac)-((1R,2R,3S,4R)-4-(2-(6-chlorobenzo[b]thiophen-3-yl)pyrazolo[1,5-a]pyrimidin-7-ylamino)-2,3-dihydroxycyclopentyl)methyl rel-sulfamate], the IC50 was < 0.01 µM. Compound `NS(=O)(=O)OC[C@H]1C[C@@H](Nc2ccnc3cc(-c4ccccc4)nn23)[C@H](O)[C@@H]1O` (racemic) [Compound I-001, (rac)-((1R,2R,3S,4R)-2,3-dihydroxy-4-(2-phenylpyrazolo[1,5-a]pyrimidin-7-ylamino)cyclopentyl)methyl rel-sulfamate] has an IC50 of 0.01 to 0.1 µM. Work on `NS(=O)(=O)OC[C@H]1C[C@@H](Nc2ccnc3cc(-c4ccccn4)nn23)[C@H](O)[C@@H]1O` (racemic) [Compound I-012, (rac)-[(1R,2R,3S,4R)-2,3-dihydroxy-4-{[2-(pyridin-2-yl)pyrazolo[1,5-a]pyrimidin-7-yl]amino}cyclopentyl]methyl rel-sulfamate] yielded an IC50 of 0.01 to 0.1 µM. With `NS(=O)(=O)OC[C@H]1C[C@@H](Nc2ccnc3cc(-c4cccc5ccccc45)nn23)[C@H](O)[C@@H]1O` (racemic) [Compound I-002, (rac)-((1R,2R,3S,4R)-2,3-dihydroxy-4-{[2-(1-naphthyl)pyrazolo[1,5-a]-pyrimidin-7-yl]amino}cyclopentyl)methyl rel-sulfamate] the IC50 was < 0.01 µM. For `NS(=O)(=O)OC[C@H]1C[C@@H](Nc2ccnc3cc(-c4cccc(Cl)c4)nn23)[C@H](O)[C@@H]1O` (racemic) [Compound I-005, (rac)-((1R,2R,3S,4R)-4-((2-(3-Chlorophenyl)pyrazolo[1,5-a]pyrimidin-7-yl)amino)-2,3-dihydroxycyclopentyl)methyl rel-sulfamate], the IC50 was < 0.01 µM. `NS(=O)(=O)OC[C@H]1C[C@@H](Nc2cc(Cl)nc3cc(-c4ccccn4)nn23)[C@H](O)[C@@H]1O` (racemic) [Compound I-011, (rac)-((1R,2R,3S,4R)-4-(5-chloro-2-(pyridin-2-yl)pyrazolo[1,5-a]pyrimidin-7-ylamino)-2,3-dihydroxycyclopentyl)methyl rel-sulfamate] gave an IC50 of 0.1 to 1 µM.
